Our source for the GI50 and TGI values is PubChem BioAssay (NCI).

Each structure is given as a SMILES string.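 Results reflect a 48-hour exposure of cells in 96-well plates to compound at five concentrations. Abbreviation: GI50, concentration required for 50% inhibition of growth. The concentration for full growth arrest is given as TGI.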

Among the test systems are SK-OV-3 ovarian; T-47D breast; DU-145 prostate; M14 melanoma; SF-539 CNS; A498 renal; SR leukemia; U251 CNS; OVCAR-3 ovarian; ACHN renal.
What all share (test): NCI anticancer screen, dose series, 48 h

For the compound `COc1ccc(-c2c(C#N)cnc(N)c2-c2nc3cc(C)c(C)cc3[nH]2)cc1`, the GI50 is 4.84 µM in the test with SK-OV-3 ovarian; 15.4 µM with T-47D breast; 6.92 µM in the test with DU-145 prostate; 6.61 µM in the test with M14 melanoma; 11.5 µM with SF-539 CNS; 10.7 µM in the test on A498 renal. For the same compound, the GI50 was 5.64 µM with SR leukemia, 3.65 µM with U251 CNS, 14.8 µM in the test with OVCAR-3 ovarian and 39.8 µM with ACHN renal. Moreover, the TGI in the test on SK-OV-3 ovarian is 18.4 µM; in the test with T-47D breast it was more than 100 µM; in the test with DU-145 prostate it was 23.8 µM; in the test with M14 melanoma it was more than 100 µM; in the test on SF-539 CNS it was 41.9 µM; with A498 renal it was 63.6 µM. Moreover, the TGI in the test with SR leukemia is more than 100 µM; in the test with U251 CNS it was 12.7 µM; with OVCAR-3 ovarian, 30.4 µM; in the test with ACHN renal, more than 100 µM.

Regarding `COc1ccc2oc3c(ccc[n+]3C)c(=O)c2c1`, the TGI in the test with SK-OV-3 ovarian, in the test with T-47D breast, in the test on DU-145 prostate, in the test with M14 melanoma, with SF-539 CNS and with A498 renal was more than 100 µM in each case. Besides, the TGI in the test with SR leukemia, in the test with U251 CNS, in the test on OVCAR-3 ovarian and in the test on ACHN renal was more than 100 µM throughout.

As to `CC(CNc1nc(Nc2ccc(Cl)c(Cl)c2)nc(C(Cl)(Cl)Cl)n1)N(C)C` (centres undefined), the GI50 is 1.6 µM with SK-OV-3 ovarian, 1.91 µM with T-47D breast, 1.99 µM in the test on DU-145 prostate and 1.56 µM with ACHN renal. Also, the TGI in the test on SK-OV-3 ovarian turned out to be 3.18 µM; in the test on T-47D breast it was 4.44 µM; with DU-145 prostate, 4.09 µM; in the test on ACHN renal it was 2.94 µM.

Take `COc1cc2c(cc1O)N=C[C@@H]1CCC(O)N1C2=O` (mixture of isomers): the TGI in the test on SK-OV-3 ovarian is 84 µM; in the test on SF-539 CNS, 1.83 µM; in the test with A498 renal, 0.928 µM; with U251 CNS, 1.71 µM; with OVCAR-3 ovarian, 1.49 µM.

As to `CC(=O)Nc1nc(C)c(-c2cc3c(c(S(C)(=O)=O)c2)C(=O)N([C@@H](C)C2CC2)C3)s1`, the GI50 in the test with SK-OV-3 ovarian is 22.2 µM; in the test on T-47D breast it was 10.7 µM; with DU-145 prostate, 29.5 µM; in the test with M14 melanoma it was 28 µM; with SF-539 CNS it was 24.2 µM; in the test with A498 renal it was 19 µM. In addition, the GI50 in the test on SR leukemia was 26.8 µM; with U251 CNS, 29.5 µM; in the test with OVCAR-3 ovarian, 30.9 µM; in the test on ACHN renal it was 28.3 µM. Besides, the TGI was 56.4 µM in the test on SK-OV-3 ovarian; 45 µM with T-47D breast; more than 100 µM in the test with DU-145 prostate; more than 100 µM in the test with M14 melanoma; more than 100 µM in the test with SF-539 CNS; 53.5 µM in the test with A498 renal. Also, the TGI with SR leukemia, with U251 CNS, in the test with OVCAR-3 ovarian and in the test with ACHN renal was more than 100 µM each time.

With `CC(=O)O[C@@H]1CN(S(=O)(=O)c2ccc(C)cc2)C[C@@H]1C1CCCCC1`, the TGI in the test with SK-OV-3 ovarian is more than 100 µM; with T-47D breast, more than 100 µM; in the test on DU-145 prostate, more than 100 µM; with M14 melanoma, 29.3 µM; in the test on SF-539 CNS, 0.609 µM; in the test on A498 renal, 55.1 µM. Besides, the TGI was more than 100 µM in the test on SR leukemia, 37.2 µM in the test with U251 CNS, 28.2 µM in the test with OVCAR-3 ovarian and more than 100 µM in the test with ACHN renal.

`CCc1ncc(C(C)(O)c2ccccc2)n1Cc1ccccc1` (centres undefined): the TGI is more than 100 µM with SK-OV-3 ovarian; more than 100 µM with T-47D breast; more than 100 µM with DU-145 prostate; 13 µM in the test with M14 melanoma; more than 100 µM in the test on SF-539 CNS; 44.1 µM in the test with SR leukemia. Moreover, the TGI with U251 CNS, with OVCAR-3 ovarian and in the test with ACHN renal was more than 100 µM in each case.

`CC1CC(c2ccc([N+](=O)[O-])cc2)=Nc2ccccc2S1=O` (centres undefined): the TGI was 64.9 µM in the test on SK-OV-3 ovarian; 35 µM in the test on M14 melanoma; 45 µM in the test with SF-539 CNS; 43.2 µM with A498 renal; 76.6 µM in the test with SR leukemia; 27.7 µM with U251 CNS. In the test on ACHN renal, this compound registered a TGI of 40.6 µM.
